Test results: US10456358B2, “Isoxazoline compositions and use thereof in the prevention or treatment of parasite infestations in animals” (Intervet Inc., priority 2013, dated 2019)

System: poultry red mite (Dermanyssus gallinae)
Assay: Efficacy study: medicated drinking water against artificially induced poultry red mite infestations of laying hens
Assay type: in vivo
Procedure: Groups A-D (n=6) were treated with doses of 2, 1 and 0.5 mg fluralaner/kg BW once or 1 mg fluralaner/kg BW twice (0.5 mg/kg BW on 2 occasions).
Drinking water consumption in each was measured on three days prior to administration to calculate the average daily water consumption. Medicated water was prepared by diluting a fluralaner solution (10 mg/mL) as shown in the table below to the calculated fluralaner concentration.
On D0 (group D additionally on D7), the hens in groups A-D received fluralaner via medicated drinking water. Group E received un-medicated drinking water ad libitum.
The dose to be administered was calculated based on average body weights of each treatment group, obtained one day before treatment (D-1, D 6). A fluralaner stock solution was diluted in the drinking water to prepare medicated water ready for consumption.
The volume of medicated water offered per group on D0 (group D also on D7) was approximately 50% of the calculated mean daily water intake measured previously in the respective group in order to ensure consumption of the full dose.
Once all medicated water was consumed the other 50% volume of the mean daily water intake was supplied as tap water in the same drinker.
On Day 1, Day 5, Day 8, Day 12, D15, D19 and D22 four of six hens per group were infested with approximately 200 vital, D. gallinae mites (unfed nymphs and adults that starved before infestation for 7 days).
From each infested hen approximately 25 engorged mites were collected and incubated for approximately 24 hours. The dead, damaged and/or live mites were counted visually using a binocular.
Mites were classified as dead if no movement was determined or mites lay in a dorsal position. Mites were classified as damaged if their movement was uncoordinated.
The Mite Mortality and Mite Inhibition percentage was calculated for each treated group in comparison to a not-treated negative control group.

[1] = Group A, 2 mg/kg BW once (D0) via drinking water, laying hens, infestation on D1
[2] = Group A, 2 mg/kg BW once (D0) via drinking water, laying hens, infestation on D5
[3] = Group A, 2 mg/kg BW once (D0) via drinking water, laying hens, infestation on D8
[4] = Group A, 2 mg/kg BW once (D0) via drinking water, laying hens, infestation on D12
[5] = Group A, 2 mg/kg BW once (D0) via drinking water, laying hens, infestation on D15
[6] = Group A, 2 mg/kg BW once (D0) via drinking water, laying hens, infestation on D19
[7] = Group A, 2 mg/kg BW once (D0) via drinking water, laying hens, infestation on D22
[8] = Group B, 1 mg/kg BW once (D0) via drinking water, laying hens, infestation on D1
[9] = Group B, 1 mg/kg BW once (D0) via drinking water, laying hens, infestation on D5
[10] = Group B, 1 mg/kg BW once (D0) via drinking water, laying hens, infestation on D8
[11] = Group B, 1 mg/kg BW once (D0) via drinking water, laying hens, infestation on D12
[12] = Group B, 1 mg/kg BW once (D0) via drinking water, laying hens, infestation on D15
[13] = Group B, 1 mg/kg BW once (D0) via drinking water, laying hens, infestation on D19
[14] = Group B, 1 mg/kg BW once (D0) via drinking water, laying hens, infestation on D22
[15] = Group C, 0.5 mg/kg BW once (D0) via drinking water, laying hens, infestation on D1
[16] = Group C, 0.5 mg/kg BW once (D0) via drinking water, laying hens, infestation on D5
[17] = Group C, 0.5 mg/kg BW once (D0) via drinking water, laying hens, infestation on D8
[18] = Group C, 0.5 mg/kg BW once (D0) via drinking water, laying hens, infestation on D12
[19] = Group C, 0.5 mg/kg BW once (D0) via drinking water, laying hens, infestation on D15
[20] = Group C, 0.5 mg/kg BW once (D0) via drinking water, laying hens, infestation on D19
[21] = Group C, 0.5 mg/kg BW once (D0) via drinking water, laying hens, infestation on D22
[22] = Group D, 1 (2 × 0.5) mg/kg BW (D0 and D7) via drinking water, laying hens, infestation on D1
[23] = Group D, 1 (2 × 0.5) mg/kg BW (D0 and D7) via drinking water, laying hens, infestation on D5
[24] = Group D, 1 (2 × 0.5) mg/kg BW (D0 and D7) via drinking water, laying hens, infestation on D8
[25] = Group D, 1 (2 × 0.5) mg/kg BW (D0 and D7) via drinking water, laying hens, infestation on D12
[26] = Group D, 1 (2 × 0.5) mg/kg BW (D0 and D7) via drinking water, laying hens, infestation on D15
[27] = Group D, 1 (2 × 0.5) mg/kg BW (D0 and D7) via drinking water, laying hens, infestation on D19
[28] = Group D, 1 (2 × 0.5) mg/kg BW (D0 and D7) via drinking water, laying hens, infestation on D22

Cc1cc(C2=NOC(c3cc(Cl)cc(Cl)c3)(C(F)(F)F)C2)ccc1C(=O)NCC(=O)NCC(F)(F)F (stereo not shown) [fluralaner, 4-[5-(3,5-Dichlorophenyl)-5-trifluoromethyl-4,5-dihydroisoxazol-3-yl]-2-methyl-N-[(2,2,2-trifluoro-ethylcarbamoyl)-methyl]-benzamide]
% Inhibition of D. gallinae assessed 24 hours after infestation [1]: 100%
% Mortality of D. gallinae assessed 24 hours after infestation [1]: 100%
% Inhibition of D. gallinae assessed 24 hours after infestation [2]: 100%
% Mortality of D. gallinae assessed 24 hours after infestation [2]: 100%
% Inhibition of D. gallinae assessed 24 hours after infestation [3]: 100%
% Mortality of D. gallinae assessed 24 hours after infestation [3]: 100%
% Inhibition of D. gallinae assessed 24 hours after infestation [4]: 100%
% Mortality of D. gallinae assessed 24 hours after infestation [4]: 100%
% Inhibition of D. gallinae assessed 24 hours after infestation [5]: 81%
% Mortality of D. gallinae assessed 24 hours after infestation [5]: 77%
% Inhibition of D. gallinae assessed 24 hours after infestation [6]: 14%
% Mortality of D. gallinae assessed 24 hours after infestation [6]: 1%
% Inhibition of D. gallinae assessed 24 hours after infestation [7]: 0%
% Mortality of D. gallinae assessed 24 hours after infestation [7]: 0%
% Inhibition of D. gallinae assessed 24 hours after infestation [8]: 100%
% Mortality of D. gallinae assessed 24 hours after infestation [8]: 100%
% Inhibition of D. gallinae assessed 24 hours after infestation [9]: 100%
% Mortality of D. gallinae assessed 24 hours after infestation [9]: 100%
% Inhibition of D. gallinae assessed 24 hours after infestation [10]: 100%
% Mortality of D. gallinae assessed 24 hours after infestation [10]: 100%
% Inhibition of D. gallinae assessed 24 hours after infestation [11]: 95%
% Mortality of D. gallinae assessed 24 hours after infestation [11]: 94%
% Inhibition of D. gallinae assessed 24 hours after infestation [12]: 81%
% Mortality of D. gallinae assessed 24 hours after infestation [12]: 77%
% Inhibition of D. gallinae assessed 24 hours after infestation [13]: 3%
% Mortality of D. gallinae assessed 24 hours after infestation [13]: 2%
% Inhibition of D. gallinae assessed 24 hours after infestation [14]: 0%
% Mortality of D. gallinae assessed 24 hours after infestation [14]: 0%
% Inhibition of D. gallinae assessed 24 hours after infestation [15]: 100%
% Mortality of D. gallinae assessed 24 hours after infestation [15]: 100%
% Inhibition of D. gallinae assessed 24 hours after infestation [16]: 100%
% Mortality of D. gallinae assessed 24 hours after infestation [16]: 100%
% Inhibition of D. gallinae assessed 24 hours after infestation [17]: 100%
% Mortality of D. gallinae assessed 24 hours after infestation [17]: 97%
% Inhibition of D. gallinae assessed 24 hours after infestation [18]: 75%
% Mortality of D. gallinae assessed 24 hours after infestation [18]: 55%
% Inhibition of D. gallinae assessed 24 hours after infestation [19]: 19%
% Mortality of D. gallinae assessed 24 hours after infestation [19]: 15%
% Inhibition of D. gallinae assessed 24 hours after infestation [20]: 0%
% Mortality of D. gallinae assessed 24 hours after infestation [20]: 0%
% Inhibition of D. gallinae assessed 24 hours after infestation [21]: 0%
% Mortality of D. gallinae assessed 24 hours after infestation [21]: 0%
% Inhibition of D. gallinae assessed 24 hours after infestation [22]: 100%
% Mortality of D. gallinae assessed 24 hours after infestation [22]: 100%
% Inhibition of D. gallinae assessed 24 hours after infestation [23]: 100%
% Mortality of D. gallinae assessed 24 hours after infestation [23]: 100%
% Inhibition of D. gallinae assessed 24 hours after infestation [24]: 100%
% Mortality of D. gallinae assessed 24 hours after infestation [24]: 100%
% Inhibition of D. gallinae assessed 24 hours after infestation [25]: 100%
% Mortality of D. gallinae assessed 24 hours after infestation [25]: 100%
% Inhibition of D. gallinae assessed 24 hours after infestation [26]: 99%
% Mortality of D. gallinae assessed 24 hours after infestation [26]: 98%
% Inhibition of D. gallinae assessed 24 hours after infestation [27]: 66%
% Mortality of D. gallinae assessed 24 hours after infestation [27]: 59%
% Inhibition of D. gallinae assessed 24 hours after infestation [28]: 27%
% Mortality of D. gallinae assessed 24 hours after infestation [28]: 14%
onset of action (all administered doses, via drinking water, laying hens): fast onset of action
inhibition of red poultry mites (drinking water administration to poultry animals, for at least 15 days): 99%
